Assay results published in ChEMBL document CHEMBL3608266, “Active Constituents from Drynaria fortunei Rhizomes on the Attenuation of Aβ(25-35)-Induced Axonal Atrophy” (J Nat Prod, 2015).
The source made the active and inactive calls. The calls are words filed in the database; no cut-off is given here.

Test system: Cortical neurone
Test: Induction of axonal regeneration in mouse cortical neurons assessed as reversal of Abeta (25 to 35)-induced axonal atrophy at 10 uM treated 3 days after Abeta (25 to 35) challenge and measured 4 days post compound dosing by pNF-H and MAP2 immunostaining method
Type: functional

SMILES | Activity
O=C(O)/C=C/c1ccc(O[C@@H]2O[C@H](CO)[C@@H](O)[C@H](O)[C@H]2O)c(O)c1 | Active
C[C@@H]1O[C@@H](O[C@H]2[C@H](Oc3cc(O)c4c(c3)O[C@H](c3ccc(O)c(O)c3)CC4=O)O[C@H](CO)[C@@H](O)[C@@H]2O)[C@H](O)[C@H](O)[C@H]1O | Active
